The results in this text go back to publication PMC10713630, “Elucidation of the structural basis for ligand binding and translocation in conserved insect odorant receptor co-receptors” (Nature Communications, 2023).

Where “and” joins values, the source holds several entries; their conditions need not be identical. Identical values can stand only once. Entries after “also recorded” stand apart in the source; their conditions may differ.

What all share (type): cell-based
The target of one test is DmelOrco M210W (Drosophila melanogaster, UniProt Q9VNB5, M210W). Nature of the test: TEVC recording of VUAA1-induced current, DmelOrco M210W in Xenopus oocytes. The note with it: concentration-effect curve of VUAA1, TEVC, M210W. From the text: (§1) All Orco gene sequences were optimized[63] for protein expression in Xenopus laevis oocytes with the GenSmartTM Codon optimization Tool and subcloned into a pGEMHE-derived vector. The wildtype gene of Drosophila melanogaster Orco (DmelOrco) was synthesized by Genscript and subcloned with XmaI/XhoI cloning sites. Site-directed mutagenesis of DmelOrco was done by PCR with the Q5® site directed mutagenesis kit (NEB) using primers optimized with the NEBase Changer online tool and following the supplier’s protocol. After transformation of commercial competent bacteria (XL10 Gold) by standard heat-shock protocol and overnight culture in ampicillin-containing LB plates, positive clones were identified by electrophoretic restriction profile and external sequencing (Genewiz). DNAs of positive clones were amplified with Qiagen MidiPrep Kit and the ORF was fully sequenced. For in vitro transcription, DNAs were linearized with restriction enzyme NotI that cuts a unique site in the 3′ region of the polyA tail. The linearized DNAs were purified by the standard phenol:chloroform extraction method and transcribed into mRNA using the T7 ultra mMessage mMachine kit (Thermo Fisher Scientific). mRNAs were purified with the NucleoSpin RNA plus XS kit (Machery-Nagel). DNA and RNA were analyzed by agarose-gel electrophoresis and quantified by spectrophotometry.
(§2) Xenopus laevis oocytes were prepared, as previously described. Briefly, oocytes were defolliculated after surgical retrieval by type 1 A collagenase over 2-3 h under smooth horizontal agitation. They were manually selected and incubated at 19 °C in modified-Barth’s solution (1 mM KCl, 0.82 mM MgSO4, 88 mM NaCl, 2.4 mM NaHCO3, 0.41 mM CaCl2, Ca(NO3)2 0.3 mM, 16 mM HEPES, pH 7.4) supplemented with 100 U mL^−1 of penicillin and streptomycin and 0.1 mg mL^−1 of gentamycin. Each oocyte was micro-injected with the Nanoject instrument (Drummond) with 50 nL of 20 ng of mRNA coding for the Orco of interest. Injected oocytes were incubated individually in 96-well plates for 4 days at 19 °C in the same buffer. Different batches of oocytes have been tested per construct. The results of the mutants of interest have been confirmed by a second set of experiments comparing the amplitudes with WT in the same day and from the same batch of oocytes (Supplementary Fig. 11).
(§3) Whole cell currents were recorded with the two-electrode voltage-clamp (TEVC) technique with the HiClamp robot (MultiChannel System). Microelectrodes were filled with 3 M KCl. The high K^+ buffer used for recordings was composed of 91 mM KCl, 1 mM MgCl2, 1.8 mM CaCl2, 5 mM HEPES, pH 7.4. Membrane voltage was clamped to −50 mV and VUAA1 was applied for 60 s. Data were extracted with M. Vivaudou’s programs[65] and statistically analyzed with Prism 8 (Graphpad).

In a further test the target is DmelOrco I181W (Drosophila melanogaster, UniProt Q9VNB5, I181W). In words: TEVC recording of VUAA1-induced current, DmelOrco I181W in Xenopus oocytes. More on the design: VUAA1-induced current, i181W: unit not given here.
Source text: as §1, with “The linearized DNAs were purified by the standard phenol:chloroform extraction method and transcribed into mRNA using the T7 ultra mMessage mMachine kit (Thermo Fisher Scientific). mRNAs were purified with the NucleoSpin RNA plus XS kit (Machery-Nagel).” left out, “spectrophotometry. […]” for “spectrophotometry.”
(§4) Whole cell currents were recorded with the two-electrode voltage-clamp (TEVC) technique with the HiClamp robot (MultiChannel System). […] Data were extracted with M. Vivaudou’s programs[65] and statistically analyzed with Prism 8 (Graphpad).

Another test deals with DmelOrco S146V (Drosophila melanogaster, UniProt Q9VNB5, S146V). In words: TEVC recording of VUAA1-induced current, DmelOrco S146V in Xenopus oocytes.
Source text: as §1
Xenopus laevis oocytes were prepared, as previously described. Briefly, oocytes were defolliculated after surgical retrieval by type 1 A collagenase over 2-3 h under smooth horizontal agitation. They were manually selected and incubated at 19 °C in modified-Barth’s solution (1 mM KCl, 0.82 mM MgSO4, 88 mM NaCl, 2.4 mM NaHCO3, 0.41 mM CaCl2, Ca(NO3)2 0.3 mM, 16 mM HEPES, pH 7.4) supplemented with 100 U mL^−1 of penicillin and streptomycin and 0.1 mg mL^−1 of gentamycin. […]
as §4

The target of a further test is DmelOrco K373A (Drosophila melanogaster, UniProt Q9VNB5, K373A). Nature of the test: TEVC recording of VUAA1-induced current, DmelOrco K373A in Xenopus oocytes. The arrangement: VUAA1-induced current, K373A: unit not given here.
Source text: as §1, with “The linearized DNAs were purified by the standard phenol:chloroform extraction method and transcribed into mRNA using the T7 ultra mMessage mMachine kit (Thermo Fisher Scientific). mRNAs were purified with the NucleoSpin RNA plus XS kit (Machery-Nagel).” left out, “spectrophotometry. […]” for “spectrophotometry.”
as §4

The next test has as its target DmelOrco F83W (Drosophila melanogaster, UniProt Q9VNB5, F83W). In words: TEVC recording of VUAA1-induced current, DmelOrco F83W in Xenopus oocytes. The note with it: 500 µM VUAA1, TEVC.
Source text: as §1, with “The linearized DNAs were purified by the standard phenol:chloroform extraction method and transcribed into mRNA using the T7 ultra mMessage mMachine kit (Thermo Fisher Scientific). mRNAs were purified with the NucleoSpin RNA plus XS kit (Machery-Nagel).” left out, “spectrophotometry. […]” for “spectrophotometry.”
as §4

A further test addresses T1, DmelOrco WT (Drosophila melanogaster, UniProt Q9VNB5).
T1 sequence (Q9VNB5 1-486): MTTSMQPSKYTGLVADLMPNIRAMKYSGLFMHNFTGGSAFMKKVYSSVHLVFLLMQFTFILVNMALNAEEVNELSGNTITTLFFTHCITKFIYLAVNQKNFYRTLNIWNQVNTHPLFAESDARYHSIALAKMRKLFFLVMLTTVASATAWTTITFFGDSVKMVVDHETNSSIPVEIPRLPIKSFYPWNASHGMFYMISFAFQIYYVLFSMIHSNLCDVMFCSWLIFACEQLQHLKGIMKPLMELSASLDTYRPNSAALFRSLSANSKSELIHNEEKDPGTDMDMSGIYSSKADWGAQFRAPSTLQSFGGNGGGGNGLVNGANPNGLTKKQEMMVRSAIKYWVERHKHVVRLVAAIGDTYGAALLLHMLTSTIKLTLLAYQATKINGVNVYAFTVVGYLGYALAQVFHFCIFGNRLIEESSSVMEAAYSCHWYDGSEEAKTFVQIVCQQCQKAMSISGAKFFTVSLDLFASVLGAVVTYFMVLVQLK
Nature of the test: TEVC recording of VUAA1-induced current, DmelOrco WT in Xenopus oocytes. The arrangement: VUAA1-induced current, WT: unit not given here. The note with it: for VUAA1-induced current, WT: individual oocytes.
Source text: as §1, §2, §3

Sequence of DmelOrco K373A (Q9VNB5 whole entry K373A, the tested form may be a part): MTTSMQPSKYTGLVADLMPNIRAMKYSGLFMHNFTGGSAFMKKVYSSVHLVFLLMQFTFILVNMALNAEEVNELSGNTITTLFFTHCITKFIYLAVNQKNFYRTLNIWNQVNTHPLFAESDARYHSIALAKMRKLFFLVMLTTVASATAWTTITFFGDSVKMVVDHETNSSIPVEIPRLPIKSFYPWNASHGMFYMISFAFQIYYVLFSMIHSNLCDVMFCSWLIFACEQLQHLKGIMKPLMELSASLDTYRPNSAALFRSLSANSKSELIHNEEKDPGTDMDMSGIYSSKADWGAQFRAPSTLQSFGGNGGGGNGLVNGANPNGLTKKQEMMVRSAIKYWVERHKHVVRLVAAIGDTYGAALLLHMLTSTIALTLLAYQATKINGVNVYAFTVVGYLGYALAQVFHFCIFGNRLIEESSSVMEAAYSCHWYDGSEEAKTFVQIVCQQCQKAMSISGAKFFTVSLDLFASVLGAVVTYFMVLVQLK
Sequence of DmelOrco S146V (Q9VNB5 whole entry S146V, the tested form may be a part): as the sequence (Q9VNB5 whole entry K373A, the tested form may be a part) above, with S146V, A373K counted along it
Sequence of DmelOrco I181W (Q9VNB5 whole entry I181W, the tested form may be a part): as the sequence (Q9VNB5 whole entry K373A, the tested form may be a part) above, with I181W, A373K counted along it
Sequence of DmelOrco F83W (Q9VNB5 whole entry F83W, the tested form may be a part): as the sequence (Q9VNB5 whole entry K373A, the tested form may be a part) above, with F83W, A373K counted along it
Sequence of DmelOrco M210W (Q9VNB5 whole entry M210W, the tested form may be a part): as the sequence (Q9VNB5 whole entry K373A, the tested form may be a part) above, with M210W, A373K counted along it

For orientation: EC50 means the concentration that produces a half-maximal response. As for `CCc1ccc(NC(=O)CSc2nnc(-c3cccnc3)n2CC)cc1` [VUAA1, N-(4-ethylphenyl)−2-((4-ethyl-5-(3-pyridinyl)−4H-1,2,4-triazol-3-yl)thio)acetamide], the Imax on DmelOrco M210W came out at 1.50 µA; on DmelOrco S146V (concentration-effect curve of VUAA1, TEVC, S146V) it was 6.99 µA; on DmelOrco WT (concentration-effect curve of VUAA1, TEVC, WT), 3.97 µA. For the same molecule, the “Response to VUAA1 compared with WT” value on DmelOrco I181W (500 µM VUAA1, TEVC, I181W) is “significantly reduced or abolished the activation; also recorded: clear loss of VUAA1 activation”; at DmelOrco K373A (500 µM VUAA1, TEVC, K373A), “did not significantly affect the amplitude of activation; also recorded: did not change the response”; at DmelOrco F83W, “decreased the response; also recorded: significant decrease in the response”. Besides, the “VUAA1-induced current, i181W” value on DmelOrco I181W (Fig.4b, individual oocytes) is 0.52 and 0.99 and 0.9 and 0.42 and 0.27 and 1.33 and 0.95 and 0.29 and 0.18 and 1.75 and 2.06 and 1.1 and 0.66 and 0.22 and 0.14 and 0.54 and 0.08. For the same molecule, the EC50 on DmelOrco S146V was determined as 82.2 µM; on DmelOrco WT (VUAA1 dose-response curve, TEVC, WT), 94.5 µM. The “Current induced by VUAA1 (median)” value is on record as 11.68 µA at DmelOrco S146V (500 µM VUAA1, TEVC, S146V) and 4.71 µA at DmelOrco WT (500 µM VUAA1, TEVC, WT). Besides, on DmelOrco K373A (Fig.4b, individual oocytes), the “VUAA1-induced current, K373A” value was 6.85 and 4.61 and 2.07 and 4.45 and 3.44 and 3.51 and 4.3 and 6.42 and 4.68 and 7.17 and 5.08. Besides, the “Current amplitude in the presence of VUAA1 compared with Orcos of other species” value on DmelOrco WT (500 µM VUAA1, TEVC, versus AbakOrco, AalbOrco, CquiOrco) is recorded as “highest current amplitude”. The “VUAA1-induced current, WT” value at DmelOrco WT (Fig.4b) is 1.7 and 1.54 and 2.24 and 5.84 and 5.68 and 11.97 and 10.02 and 8.3 and 7.33 and 2.12 and 1.87 and 2.7 and 3.73 and 16.35 and 2.15 and 5.7; on DmelOrco WT (Fig.4i dose-response, VUAA1 10 µM (Log(M) -5)), 0.03 and 0.04 (2×) and 0.02 and 0.09 and 0.05 and 0.06; on DmelOrco WT (Fig.4i dose-response, VUAA1 25 µM (Log(M) -4.6)) it was 0.27 and 0.36 and 0.04 (4×) and 0.08 (2×) and 0.03 (3×) and 0.02 and 0.05 (3×) and 0.15 and 0 and 0.09 and 0.12 and 0.07; on DmelOrco WT (Fig.4i dose-response, VUAA1 50 µM (Log(M) -4.3)), 0.58 and 0.72 and 0.4 (2×) and 0.37 and 0.54 and 0.11 and 0.17 and 0.26 (3×) and 0.21 and 0.34 and 0.77 and 1.04 and 1.01 (2×) and 0.78 and 1.15 and 1.23; at DmelOrco WT (Fig.4i dose-response, VUAA1 100 µM (Log(M) -4)), 1.33 and 1.71 and 2.65 and 2.17 (2×) and 2.77 and 1.82 and 2.07 and 2.22 and 1.61 and 2.38 and 1.2 and 1.79 and 2.19 and 2.6 and 2.64 (2×) and 1.94 and 2.47 and 2.54; on DmelOrco WT (Fig.4i dose-response, VUAA1 500 µM (Log(M) -3.3)), 3.64 (2×) and 4.55 and 3.85 and 4.63 and 4.01 and 4.3 and 4.47 and 4.77 and 5.33 and 1.53 and 3.97 and 4.65 and 2.65 and 2.64 and 2.78 (2×).
